Measurements taken from patent US9918966B2, “Anti-cancer compositions and methods” (The Penn State Research Foundation, priority 2013, dated 2018).
Like-named read-outs stand apart in the source and are kept apart here.

What was measured:
[1] = Text: Number of mice surviving and changes in body weight after 7 days of drug treatment is scored (Table I).
Caco-2 (Colon) = assay: IC50 for killing cancer cells; format: cell-based; settings: Homo sapiens
Text: (§1) Therapeutic universality of selenocoxib-1-GSH for killing cancer cells is examined by treating pancreatic (MiaPaca-2), breast (MDA-MB-231), prostate (PC-3) or sarcoma (HT-1080) and colon (Caco2) cell. lines with the drug and establishing the IC50 for each cell line, Table III. Selenocoxib-1-GSH kills the various cancer cell lines at 2-3-fold lower concentrations than normal fibroblast cells.

HT-1080 (Fibro sarcoma) = assay: IC50 for killing cancer cells; format: cell-based; settings: Homo sapiens
Text: as §1

MDA-MB-231 (Breast) = assay: IC50 for killing cancer cells; format: cell-based; settings: Homo sapiens
Text: as §1

MiaPaca-2 (Pancreas) = assay: IC50 for killing cancer cells; format: cell-based; settings: Homo sapiens, MIA PaCa-2
Text: as §1

PC-3 (Prostate) = assay: IC50 for killing cancer cells; format: cell-based; settings: Homo sapiens
Text: as §1

[2] = test system: normal human melanocytes or fibroblast cells
Experimental: Cell viability, proliferation, apoptosis and cell cycle analysis: Viability and IC50 (μmol/L) of normal human melanocytes, fibroblast and melanoma cells following treatment with inhibitors are measured using the MTS assay (Promega, Madison, Wis.) described in Sharma A, et al., Clin Cancer Res 2009; 15:1674-85; and Madhunapantula S V, et al., Mol Cancer Ther 2008; 7:1297-308. […] IC50 values for each inhibitor in μmol/L for respective cell lines are measured from three independent experiments using GraphPad Prism version 4.01 (GraphPad Software, La Jolla, Calif.).

1205 Lu melanoma cells [3] = assay: Cell proliferation ELISA BrdU; format: cell-based, human; settings: 72 h, increasing concentrations
Text: (§2) Data represent averages of at least 3 independent experiments; bars; S.E.M.
(§3) Percentage of proliferating and apoptotic cells are quantified by a colorimetric using cell proliferation ELISA BrdU kit (Roche Applied Sciences, Indianapolis, Ind.) and Apo-ONE Homogenous caspase-3/7 assay kit (Promega, Madison Wis.), as described in Sharma A, et al., Clin Cancer Res 2009; 15:1674-85; and Madhunapantula S V, et al., Mal Cancer Ther 2008; 7:1297-308.

UACC 903 melanoma cells [4] = assay: Cell proliferation ELISA BrdU; format: cell-based, human; settings: UACC 903, 72 h, increasing concentrations
Text: as §2, §3

1205 Lu melanoma cells [5] = assay: Apo-ONE caspase-3/7 assay (apoptosis); format: cell-based, human; settings: 72 h, dose dependent up to 25 μmol/L
Text: as §2

UACC 903 melanoma cells [6] = assay: Apo-ONE caspase-3/7 assay (apoptosis); format: cell-based, human
Text: as §2

1205 Lu melanoma cells [7] = assay: Cell cycle analysis, propidium iodide FACScan; format: cell-based, human; settings: 72 h
Experimental: (§4) The effect of selenocoxib-1-GSH on cell cycle distribution is measured by analyzing propidium iodide stained 1205 Lu and UACC 903 cells using a BD FACScan. […] Total floating and adherent cells are collected following trypsinization and stained using a 1 mL propidium iodide solution containing 100 μg/mL propidium iodide; (Sigma, St Louis, Mo.), 20 μg/mL Ribonuclease A (Roche diagnostics, Indianapolis, Ind.) and 3 μg/mL Triton X-100 dissolved in 0.1% (W/V) sodium citrate for 30 m at 4° C.
(§5) Selenocoxib-1-GSH treatment increases the sub-G0-G1 cell population, which is indicative of cellular apoptosis. […] Total floating and adherent cells are collected, and stained with propidium iodide to analyze the distribution of cells in different phases of the cell cycle stages using a FACScan analyzer. […] Data represents an average of 2 independent experiments.

UACC 903 melanoma cells [8] = assay: Cell cycle analysis, propidium iodide FACScan; format: cell-based, human; settings: 72 h
Experimental: as §4, §5

[9] = Toxicity assessments: blood markers and H&E of vital organs; format: in vivo
Experimental: Four to six week old athymic-Foxn1^nu nude mice (Harlan Sprague Dawley, IN), are treated with either vehicle control or selenocoxib-1-GSH (n=5) as described in tumor kinetics studies. At the end of treatment, blood is collected from each sacrificed animal in a plasma separator tube with lithium heparin (BD Microtainer) following cardiac puncture and analyzed for ALKP (Alkaline phosphatase), ALT (Alanine aminotransferase), AST (Aspartate aminotransferase), ALB (Total albumin), TBIL (Total bilirubin), CREA (Creatinine), BUN (Blood urea nitrogen), CHOL (Total cholesterol), TRIG (Total triglyceride) and GLU (Glucose) levels to ascertain possible liver, heart, kidney, and pancreas related toxicity. A portion of vital organs, liver, heart, kidney, pancreas, and spleen-from each animal is formalin-fixed and paraffin-embedded to examine toxicity-associated changes in cell morphology and tissue organization following H&E staining as described in Nguyen N, et al. Cancer Prev Res (Phila) 2011; 4: 248-58.

1205 Lu melanoma cells [10] = assay: Reactive oxygen species (ROS) assay; format: cell-based, human; settings: 5, 10, 15 and 20 μmol/L, 24 hours, compared to celecoxib and selenocoxib-1
Experimental: (§6) Intracellular ROS are monitored according to a procedure described in detail in Smasundaram et al., Cancer Res., 62:3868-3875, 2002. […] After 24 hours treatment, total cells (floating and adherent) are collected in ice-cold phosphate-buffered saline and 5×10^3 cells/well placed in 100 microliters culture medium in a 96-well plate containing 10 micromoles/liter 2′,7′-dichlorfluorescein-diacetate (commercially available from Sigma, St. Louis, Mo.) and incubated at 37° C. for 30 minutes. The amount of ROS present compared to DMSO vehicle treated cells was represented in arbitrary units.
(§7) Selenocoxib-1-GSH inhibits the generation of ROS.

UACC 903 melanoma cells [11] = assay: Reactive oxygen species (ROS) assay; format: cell-based, human; settings: 5, 10, 15 and 20 μmol/L, 24 hours, compared to celecoxib and selenocoxib-1
Experimental: as §6, §7

In the case of `NC(CCC(=O)NC(CS[Se]Cc1cc(-c2ccccc2)n(-c2ccc(S(N)(=O)=O)cc2)n1)C(=O)NCC(=O)O)C(=O)O` (stereo not shown) [Selenocoxib-1-GSH, selenocoxib-1-glutathione], the “% of weight loss” value ([1]; 0.127 μmoles (10 PPM) intraperitoneally daily for seven days) is reported as “No loss”, the “Mortality at Day 7” value ([1]; 0.127 μmoles intraperitoneally daily for seven days, 3 mice/group (Selenocoxib-1-GSH: 10 PPM)) is reported as 0/3 and the “% of weight loss” value ([1]; 0.254 μmoles (20 PPM) intraperitoneally daily for seven days) is reported as 2.0%. For the same molecule, the “Mortality at Day 7” value ([1]; 0.254 μmoles (20 PPM) intraperitoneally daily for seven days, 3 mice/group) was 0/3, the mortality ([1]; 0.127 to 0.254, seven days) was “no mortality” and the weight loss ([1]; 0.127 to 0.254 moles (equivalent to 5 to 10 ppm of selenium), seven days) was roughly 2%. For the same molecule, the IC50 (Caco-2 (Colon)) was 16.1 ± 0.87 µM, the IC50 (HT-1080 (Fibro sarcoma)) was 9.1 ± 1.89 µM and the IC50 (MDA-MB-231 (Breast)) was 15.4 ± 2.51 µM. For the same molecule, the IC50 (MiaPaca-2 (Pancreas)) was 13.3 ± 1.01 µM, the IC50 (PC-3 (Prostate)) was 16.4 ± 2.11 µM and the “toxicity on normal cells relative to melanoma cells” value [2] was “significantly lower toxicity on normal cells”. The “cell proliferation (BrdU incorporation)” value (1205 Lu melanoma cells [3]) was “reduces proliferation”, the “cell proliferation (BrdU incorporation)” value (UACC 903 melanoma cells [4]) was “reduces proliferation” and the caspase-3/7 activity (1205 Lu melanoma cells [5]) was “increases caspase-3/7 activity”. For the same molecule, the caspase-3/7 activity (UACC 903 melanoma cells [6]; UACC 903, 50 μmol/L, 72 h) was “significant decrease”, the caspase-3/7 activity (UACC 903 melanoma cells [6]; UACC 903, 72 h, dose dependent up to 25 μmol/L) was “increases caspase-3/7 activity” and the “increase of sub-G0-G1 population cells” value (1205 Lu melanoma cells [7]; 25 μmol/L) was 6.2 fold. The cell cycle progression (1205 Lu melanoma cells [7]; 12.5 and 25 μmol/L) was “inhibits cell cycle progression”, the “increase of sub-G0-G1 population cells” value (UACC 903 melanoma cells [8]; UACC 903, 25 μmol/L) was 4.7 fold and the cell cycle progression (UACC 903 melanoma cells [8]; UACC 903, 12.5 and 25 μmol/L) was “inhibits cell cycle progression”. The “H&E stained tissue sections of liver, heart, lung, kidney or spleen” value ([9]; at the end of treatment, versus DMSO vehicle) was “no changes in the morphology or architecture”, the “levels of blood markers for major organ related toxicity (ALKP, ALT, AST, ALB, TBIL, CREA, BUN, CHOL, TRIG, GLU)” value ([9]; mouse, in vivo) was “negligible differences compared to controls” and the ROS (1205 Lu melanoma cells [10]) was “more dramatically decreased ROS”. The ROS (UACC 903 melanoma cells [11]) was “more dramatically decreased ROS”.
